Laboratory results published in patent publication US7452870B2, “Drug-eluting stents coated with P2Y12 receptor antagonist compound” (Inspire Pharmaceuticals, Inc., priority 2000, dated 2008).
Counter-ions that a name gives are not always drawn.

Experiments:
[1] = system: whole blood platelet aggregation; test: Ex-vivo whole blood platelet aggregation during and after continuous IV infusion in dogs; parameters: species or system beagle dogs
Experimental: (§1) Two weeks prior to the study, beagle dogs were implanted with jugular catheters and vascular access ports. Groups of four dogs (two of each sex) were fitted with jackets and connected to ambulatory infusion pumps for drug administration.
(§2) The day of the study, dogs were treated with a continuous infusion of different concentrations of test compound (usually between 0.1 and 1.5 mg/kg/h) for 90 minutes at a rate of 3 mL/kg/h. Approximately 30 minutes and 15 minutes prior to the start of infusion (predose samples), at different times during each infusion period (usually 10, 30, 60, and 90 minutes), and after the termination of the infusion (usually 5, 10, 20, 30, 40, 60, 120, and 240 minutes and 18, 20, 22, and 24 hours), blood was withdrawn from a cephalic vein catheter for the assessment of ex-vivo whole blood platelet aggregation assays and/or for bioanalytical determination of the plasma levels of the test compound. Platelet aggregation was estimated using the impedance mode of a CHRONOLOG® aggregometer as described in Example 24, and the plasma levels of the test compound were analyzed on an API 4000 LC/MS/MS system coupled with an Agilent 1100 series liquid chromatograph.

[2] = target: P2Y1 (Homo sapiens, UniProt P47900); test: Calcium mobilization assay, P2Y1; type: cell-based; parameters: key: no response (NR); conditions: activation of P2Y1 receptor;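 also: test compound added first then a maximal dose of the cognate agonist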
[3] = system: platelet aggregation (platelet rich plasma); test: Ex-vivo ADP-induced platelet aggregation after intravenous administration in mice
Experimental: In order to evaluate the effects of inhibition of platelet aggregation in-vivo by the compounds described in this invention, experimental protocols similar to those described by Leon et al. (Circulation 103:718-723, 2001) were performed.
Anesthetized mice were injected intravenously with either saline or with different doses of trans-2′,3′-cinnamyl acetal-6N-ethylurea adenosine 5′-monophosphate, bis sodium salt (Compound 41), usually between 1 and 100 μg/kg. Five minutes after the administration of the compound, 700 μL of blood were obtained from each animal. The blood of two animals was combined and immediately processed to obtain platelet rich plasma for the assessment of platelet aggregation stimulated by 1 and 5 μM ADP. Platelet aggregation was measured using optical aggregometry as described in Example 21.
A key characteristic of the compounds described in this invention is the reversible nature of the inhibition of platelet aggregation. The model system described in Example 28 was also used to study the kinetics of in-vivo inhibition of platelet aggregation with selected compounds. Briefly, a maximally effective concentration of test compound was administered intravenously, and blood samples were obtained before and at different times (usually 0, 1, 5, 15 and 30 minutes) after the administration of trans-2′,3′-cinnamyl acetal-6N-ethylurea adenosine 5′-monophosphate, bis sodium salt (Compound 41). Blood samples were processed immediately and aggregation induced by 1 μM and 5 μM ADP was estimated as described in Example 31.

[4] = system: systemic intravascular thromboembolism; test: Thromboembolism-induced mortality (collagen and epinephrine) in mice; type: in vivo; conditions: 25 mg/kg single IV bolus five minutes before 0.3 mg/kg collagen and 60 μg/kg epinephrine
Experimental: Ten anesthetized mice were treated with vehicle (control) or with a single bolus intravenous administration of test compound (usually between 10 and 25 mg/kg). Five minutes after treatment, the animals were injected with a mixture of 0.3 mg/kg collagen and 60 μg/kg epinephrine. The survival time after the administration of collagen and epinephrine in animals pretreated with saline or 25 mg/kg of the test compound 2′3′-(trans)cinnamyl acetal-6-N-ethylurea AMP (compound 41), are shown using the Kaplan-Meier plot in FIG. 3. Ninety percent of the vehicle-pretreated animals died within 6 minutes after the IV injection of collagen and epinephrine.

[5] = target: P2Y6 (Homo sapiens, UniProt Q15077); test: Calcium mobilization assay, P2Y6; type: cell-based; parameters: key: no response (NR); conditions: activation of P2Y6 receptor;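 also: test compound added first then a maximal dose of the cognate agonist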
[6] = Plasma levels of test compound during and after IV infusion in dogs (LC/MS/MS); type: in vivo; conditions: both sexes, beagle, dog, after the end of infusion, one-compartment model analysis, FIG. 5B
Experimental: as §1, §2
The pharmacological effect of the administration of the test compound correlated closely with the plasma levels of the compound. […]

[7] = target: P2Y4 (Homo sapiens, UniProt P51582); test: Calcium mobilization assay, P2Y4; type: cell-based; parameters: key: no response (NR); conditions: activation of P2Y4 receptor;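 also: test compound added first then a maximal dose of the cognate agonist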
[8] = system: washed platelet (ADP-induced aggregation; P2Y12 receptor); test: ADP-induced platelet aggregation, washed platelet preparation; type: cell-based; conditions: Homo sapiens, inhibition of ADP-induced aggregation, washed platelets, average of at least two separate experiments
Experimental: Blood was collected from healthy volunteers into syringes containing ⅙ final blood volume of anti-coagulant ACD (65 mM citric acid, 85 mM sodium citrate, 110 mM dextrose) for washed platelet (WP) preparation or into a syringe containing a final concentration of 10 units/mL heparin or 300 μM PPACK for whole blood (WB) assays. The blood collected for whole blood assays was maintained at room temperature and immediately tested as described below. […] These centrifugations and washes were repeated twice following by resuspension in the media described above containing 0.25 U apyrase/mL. Platelet aggregation was measured using the optical mode of a CHRONOLOG® aggregometer (Havertown, Pa.). Five hundred μl of platelet suspension containing 1 mg/mL Fibrinogen were warmed to 37° C. and stirred at 1000 rpm. Indicated concentrations of ADP were added to the sample and aggregation was monitored for 8 minutes. […] For whole blood aggregation, blood was diluted 1:1 with saline and then aggregation was performed in the same manner as described above using the impedance mode of the aggregometer. The potency of agonists and inhibitors of platelet aggregation was calculated from both, the rate of aggregation and the maximal extent of aggregation obtained for each determination by fitting the data to a four-parameter logistic equation using the […]® software package (GraphPad Corp. San Diego, Calif.).
The ability of P2Y12 antagonists to inhibit platelet aggregation is presented in this application as the percent inhibition of the aggregation induced by a maximally effective concentration of ADP.
Data presented are from the average of at least two separate experiments.

[9] = target: P2Y2 (Homo sapiens, UniProt P41231); test: Calcium mobilization assay, P2Y2; type: cell-based; parameters: key: no response (NR); conditions: activation of P2Y2 receptor;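 also: test compound added first then a maximal dose of the cognate agonist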
[10] = system: platelets (ADP-induced aggregation); test: Inhibition of ADP-induced platelet aggregation at 100 μM (FIG. 1); type: cell-based, human; conditions: 100 μM compound
Experimental: Blood was collected from healthy volunteers into syringes containing ⅙ final blood volume of anti-coagulant ACD (65 mM citric acid, 85 mM sodium citrate, 110 mM dextrose) for washed platelet (WP) preparation or into a syringe containing a final concentration of 10 units/mL heparin or 300 μM PPACK for whole blood (WB) assays. The blood collected for whole blood assays was maintained at room temperature and immediately tested as described below. The blood collected for WP was centrifuged at 180 g for 15 minutes and the supernatant (platelet rich plasma) was removed. The platelet rich plasma was centrifuged and the platelets were pelleted and resuspended in a buffer consisting of (mM): NaCl (137), KCl (2.7), CaCl2 (2) MgCl2 (1), NaH2PO4 (3), Glucose (5), HEPES (10), pH 7.4, 0.2% BSA. These centrifugations and washes were repeated twice following by resuspension in the media described above containing 0.25 U apyrase/mL. Platelet aggregation was measured using the optical mode of a CHRONOLOG® aggregometer (Havertown, Pa.). Five hundred μl of platelet suspension containing 1 mg/mL Fibrinogen were warmed to 37° C. and stirred at 1000 rpm. Indicated concentrations of ADP were added to the sample and aggregation was monitored for 8 minutes. The effect of the compounds described in this invention were studied following the same protocol with the exception that the inhibitor was incubated for 2-5 minutes prior to the addition of a maximally effective concentration of ADP. For whole blood aggregation, blood was diluted 1:1 with saline and then aggregation was performed in the same manner as described above using the impedance mode of the aggregometer. The potency of agonists and inhibitors of platelet aggregation was calculated from both, the rate of aggregation and the maximal extent of aggregation obtained for each determination by fitting the data to a four-parameter logistic equation using the […]® software package (GraphPad Corp. San Diego, Calif.).
The ability of P2Y12 antagonists to inhibit platelet aggregation is presented in this application as the percent inhibition of the aggregation induced by a maximally effective concentration of ADP. When a broad range of concentrations of P2Y12 antagonist was tested (usually from 1 nM to 100 μM), an IC50 value was also obtained.
Different compounds were tested for their inhibition of ADP-induced aggregation and their IC50 according to the protocols in Example 19; the results are shown in FIG. 1. The bar graphs in the figure illustrate the effect of 100 μM concentration of the compound on ADP-induced platelet aggregation, and the data are expressed as % inhibition of the ADP response.
Where hydrogens are understood to be present, they have been omitted for the sake of simplicity. […]

Sequence of P2Y1 (P47900 whole entry): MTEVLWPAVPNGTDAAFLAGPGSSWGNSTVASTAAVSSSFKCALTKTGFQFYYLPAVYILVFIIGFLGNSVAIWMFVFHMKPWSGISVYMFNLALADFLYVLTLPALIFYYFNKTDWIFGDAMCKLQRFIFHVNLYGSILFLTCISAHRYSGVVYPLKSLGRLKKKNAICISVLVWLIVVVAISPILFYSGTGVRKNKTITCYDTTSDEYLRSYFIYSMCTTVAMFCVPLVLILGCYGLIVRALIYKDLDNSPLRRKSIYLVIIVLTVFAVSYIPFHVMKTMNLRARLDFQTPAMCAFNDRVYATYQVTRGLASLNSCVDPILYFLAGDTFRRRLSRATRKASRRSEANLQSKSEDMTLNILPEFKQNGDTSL
Sequence of P2Y6 (Q15077 whole entry, species assumed, the tested form may be a part): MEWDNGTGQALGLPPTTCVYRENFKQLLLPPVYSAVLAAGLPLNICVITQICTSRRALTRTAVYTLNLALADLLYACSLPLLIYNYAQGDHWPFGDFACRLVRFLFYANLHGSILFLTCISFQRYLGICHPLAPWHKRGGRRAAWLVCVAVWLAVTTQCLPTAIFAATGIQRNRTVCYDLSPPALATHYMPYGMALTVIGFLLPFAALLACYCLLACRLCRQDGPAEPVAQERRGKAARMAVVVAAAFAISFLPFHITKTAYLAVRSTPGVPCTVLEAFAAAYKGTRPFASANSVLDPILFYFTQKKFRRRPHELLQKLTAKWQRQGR
Sequence of P2Y2 (P41231 whole entry, species assumed): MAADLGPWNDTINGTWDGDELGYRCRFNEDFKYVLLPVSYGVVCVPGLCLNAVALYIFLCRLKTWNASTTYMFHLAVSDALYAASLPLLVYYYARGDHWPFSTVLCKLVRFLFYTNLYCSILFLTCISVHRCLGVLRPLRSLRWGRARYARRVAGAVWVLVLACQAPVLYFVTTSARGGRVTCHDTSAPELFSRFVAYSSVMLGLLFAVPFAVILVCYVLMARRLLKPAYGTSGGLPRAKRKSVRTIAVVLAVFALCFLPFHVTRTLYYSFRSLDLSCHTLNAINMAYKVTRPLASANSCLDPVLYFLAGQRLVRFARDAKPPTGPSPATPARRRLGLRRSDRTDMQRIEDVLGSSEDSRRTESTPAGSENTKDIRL
Sequence of P2Y4 (P51582 whole entry, species assumed): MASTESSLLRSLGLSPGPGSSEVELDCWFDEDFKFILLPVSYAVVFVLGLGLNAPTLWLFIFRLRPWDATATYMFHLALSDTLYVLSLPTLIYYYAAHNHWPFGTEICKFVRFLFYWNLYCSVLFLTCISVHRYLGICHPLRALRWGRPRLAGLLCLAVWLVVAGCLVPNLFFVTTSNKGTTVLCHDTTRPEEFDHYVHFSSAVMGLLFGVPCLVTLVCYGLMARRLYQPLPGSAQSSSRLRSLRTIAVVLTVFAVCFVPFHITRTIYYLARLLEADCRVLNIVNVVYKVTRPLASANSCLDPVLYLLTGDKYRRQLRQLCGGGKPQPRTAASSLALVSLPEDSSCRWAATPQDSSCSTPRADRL

## CCNC(=O)Nc1ncnc2c1ncn2[C@@H]1O[C@H](COP(=O)(O)O)C2O[C@H](/C=C/c3ccccc3)OC21 (stereo in doubt) [Compound 41, Phosphoric acid mono-{6-[6-(3-ethyl-ureido)-purin-9-yl]-2-styryl-tetrahydro-furo[3,4-d][1,3]dioxol-4-ylmethyl} ester bis sodium salt]
[1]; after end of IV infusion, FIG. 5A
  restoration of platelet aggregation following termination of infusion: nearly complete restoration of platelet aggregation within an hour
[1]; continuous IV infusion, FIG. 5A (0.3 mg/kg/h)
  time at which the pharmacodynamic effect reached steady state: ≤ 30 min
[1]; continuous intravenous infusion
  infusion rate giving the maximal inhibitory effect on platelet aggregation: 0.3 mg/kg/h
[1]; continuous intravenous infusion for 90 minutes
  inhibition of platelet aggregation, dose dependence: dose-dependent inhibition
[2]
  Calcium Mobilization P2Y1: NR
[3]; intravenous maximally effective concentration, 1 μM and 5 μM ADP, 5 minutes
  inhibition of ADP-induced platelet aggregation five minutes after administration: Complete inhibition
[3]; intravenous maximally effective concentration, 1 μM and 5 μM ADP, 30 minutes
  aggregation response to ADP by 30 minutes after administration: returned to values similar to those observed in control animals
[3]; intravenous, blood taken five minutes after administration, 1 and 5 μM ADP
  inhibition of platelet aggregation, dose dependence: dose-dependent inhibition
[4]
  mortality resulting from systemic intravascular thromboembolism: 20%
[5]
  Calcium Mobilization P2Y6: NR
[6]
  half-life: ~7 min
[7]
  Calcium Mobilization P2Y4: NR
[8]
  IC50: 13 ± 2 nM
[9]
  Calcium Mobilization P2Y2: NR

## Nc1ccn([C@@H]2O[C@H](COP(=O)(O)OP(=O)(O)OP(=O)(O)OP(=O)(O)OC[C@H]3O[C@@H](n4ccc(=O)[nH]c4=O)[C@H](O)[C@@H]3O)[C@@H](O)[C@H]2O)c(=O)n1 [Cp4U, P^1-(cytidine 5′-)-P^4-(uridine 5′-) tetraphosphate]
[10]
  inhibition of ADP-induced aggregation: do not inhibit

## O=c1ccn([C@@H]2O[C@H](COP(=O)(O)OP(=O)(O)OP(=O)(O)OP(=O)(O)OC[C@H]3O[C@@H](n4cnc5c(=O)[nH]cnc54)[C@H](O)[C@@H]3O)[C@@H](O)[C@H]2O)c(=O)[nH]1 [Ip4U]
[10]
  inhibition of ADP-induced aggregation: do not inhibit

## O=c1ccn([C@@H]2O[C@H](COP(=O)(O)OP(=O)(O)OP(=O)(O)OC[C@@H]3O[C@@H](n4ccc(=O)[nH]c4=O)C(O)[C@@H]3O)[C@H](O)C2O)c(=O)[nH]1 (stereo partly drawn) [Up3U, P^1,P^3-Di(uridine 5′-) triphosphate]
[10]
  inhibition of ADP-induced aggregation: do not inhibit

## O=c1ccn([C@@H]2O[C@H](COP(=O)(O)OP(=O)(O)OP(=O)(O)OP(=O)(O)OC[C@H]3O[C@@H](n4ccc(=O)[nH]c4=O)[C@H](O)[C@@H]3O)[C@@H](O)[C@H]2O)c(=O)[nH]1 [Up4U]
[10]
  inhibition of ADP-induced aggregation: do not inhibit
